Experimental data: patent US8871934B2, “Fluorene compound and pharmaceutical use thereof” (Japan Tobacco Inc., priority 2008, dated 2014)
Read-outs that look alike come from different tables or passages of the source.

Target: human PDHK2 (hPDHK2) (Homo sapiens (Human), UniProt Q15119)
Assay: Inhibitory action of PDHK activity in vitro (kinase reaction, residual PDH activity measured)
Type: biochemical
[1] = PDHK inhibitory activity, class symbol of IC50
[2] = read-out: PDHK inhibitory activity IC50

Row | Structure (SMILES) | IC50 [1] | IC50 [2]
1 | OC1(C(F)(F)F)c2ccccc2-c2c(-c3ccccc3)cccc21 (centres unmarked) [compound 126] | > 1000 nM | > 10000 nM
2 | O=C(c1ccc2c(c1)C(O)(C(F)(F)F)c1ccccc1-2)N1CCOCC1 (centres unmarked) [compound 127] | > 1000 nM | > 10000 nM
3 | OC1(C(F)(F)F)c2ccccc2-c2ccc(OC3CCC3)cc21 (centres unmarked) [compound 128] | > 1000 nM | 2400 nM
4 | OC1(C(F)(F)F)c2ccccc2-c2ccc(-c3cccc(F)c3)cc21 (centres unmarked) [compound 129] | 100 to 1000 nM | 864 nM
5 | COC(=O)Nc1cccc2c1-c1ccccc1C2(O)C(F)(F)F (centres unmarked) [compound 130] | > 1000 nM | > 10000 nM
6 | OC1(C(F)(F)F)c2ccccc2-c2c(-c3ncco3)cccc21 (centres unmarked) [compound 131] | > 1000 nM | > 10000 nM
7 | OC1(C(F)(F)F)c2ccccc2-c2ccc(-c3cccc(Cl)c3)cc21 (centres unmarked) [compound 132] | 100 to 1000 nM | 694 nM
8 | CN(C)C1CN(C(=O)c2ccc3c(c2)C(O)(C(F)(F)F)c2ccccc2-3)C1 (centres unmarked) [compound 133] | > 1000 nM | 2500 nM
9 | OC1(C(F)(F)F)c2ccccc2-c2c(-c3ccccn3)cccc21 (centres unmarked) [compound 134] | > 1000 nM | > 10000 nM
10 | Cc1cccc(-c2ccc3c(c2)C(O)(C(F)(F)F)c2ccccc2-3)c1 (centres unmarked) [compound 137] | > 1000 nM | 1010 nM
11 | C=C(C)c1cccc2c1-c1ccccc1C2(O)C(F)(F)F (centres unmarked) [compound 138] | > 1000 nM | > 10000 nM
12 | OC1(C(F)(F)F)c2ccccc2-c2c(-c3ccncc3)cccc21 (centres unmarked) [compound 139] | > 1000 nM | > 10000 nM
13 | OC1(C(F)(F)F)c2ccccc2-c2c(-c3nnco3)cccc21 (centres unmarked) [compound 140] | > 1000 nM | 2400 nM
14 | N#Cc1cc(C(=O)N2CCC2)cc2c1-c1ccccc1C2(O)C(F)(F)F (centres unmarked) [compound 141] | < 100 nM | 77 nM
15 | Cc1noc(-c2cccc3c2-c2ccccc2C3(O)C(F)(F)F)n1 (centres unmarked) [compound 142] | 100 to 1000 nM | 543 nM
16 | CS(=O)(=O)c1cccc2c1-c1ccccc1C2(O)C(F)(F)F (centres unmarked) [compound 143] | > 1000 nM | > 10000 nM
17 | OC1(C(F)(F)F)c2ccccc2-c2ccc(-c3cccs3)cc21 (centres unmarked) [compound 144] | > 1000 nM | 1120 nM
18 | OC1(C(F)(F)F)c2ccccc2-c2ccc(-c3ccsc3)cc21 (centres unmarked) [compound 145] | > 1000 nM | 1380 nM
19 | OC1(C(F)(F)F)c2ccccc2-c2c(-c3cccnc3)cccc21 (centres unmarked) [compound 146] | 100 to 1000 nM | 213 nM
20 | O=C1CCCN1c1ccc2c(c1)C(O)(C(F)(F)F)c1ccccc1-2 (centres unmarked) [compound 147] | > 1000 nM | 1730 nM
21 | OC1(C(F)(F)F)c2ccccc2-c2ccc(N3CCCCC3)cc21 (centres unmarked) [compound 148] | > 1000 nM | 8450 nM
22 | OC1(C(F)(F)F)c2ccccc2-c2ccc(-c3ccccc3F)cc21 (centres unmarked) [compound 149] | > 1000 nM | 1220 nM
23 | OC1(C(F)(F)F)c2ccccc2-c2ccc(-c3ccccc3Cl)cc21 (centres unmarked) [compound 150] | > 1000 nM | 6840 nM
24 | Cc1ccccc1-c1ccc2c(c1)C(O)(C(F)(F)F)c1ccccc1-2 (centres unmarked) [compound 151] | > 1000 nM | 5210 nM
25 | COC(=O)c1cccc(-c2ccc3c(c2)C(O)(C(F)(F)F)c2ccccc2-3)c1 (centres unmarked) [compound 154] | 100 to 1000 nM | 309 nM
26 | O=C(O)c1cccc(-c2ccc3c(c2)C(O)(C(F)(F)F)c2ccccc2-3)c1 (centres unmarked) [compound 155] | 100 to 1000 nM | 805 nM

Row | Structure (SMILES) | IC50 [1] | IC50 [2]
27 | NC(=O)c1cccc(-c2ccc3c(c2)C(O)(C(F)(F)F)c2ccccc2-3)c1 (centres unmarked) [compound 156] | 100 to 1000 nM | 464 nM
28 | CNC(=O)c1cccc(-c2ccc3c(c2)C(O)(C(F)(F)F)c2ccccc2-3)c1 (centres unmarked) [compound 157] | 100 to 1000 nM | 358 nM
29 | CN(C)C(=O)c1cccc(-c2ccc3c(c2)C(O)(C(F)(F)F)c2ccccc2-3)c1 (centres unmarked) [compound 158] | 100 to 1000 nM | 221 nM
30 | OC1(C(F)(F)F)c2ccccc2-c2c(Cl)cc(-c3ccccc3)cc21 (centres unmarked) [compound 159] | 100 to 1000 nM | 318 nM
31 | OC1(C(F)(F)F)c2ccccc2-c2ccc(N3CCCC3)cc21 (centres unmarked) [compound 160] | > 1000 nM | 2540 nM
32 | OC1(C(F)(F)F)c2ccccc2-c2ccc(N3CCOCC3)cc21 (centres unmarked) [compound 161] | > 1000 nM | 2110 nM
33 | CN1CCN(c2ccc3c(c2)C(O)(C(F)(F)F)c2ccccc2-3)CC1 (centres unmarked) [compound 162] | > 1000 nM | 2890 nM
34 | CC(C)(C)OC(=O)N1CCN(c2ccc3c(c2)C(O)(C(F)(F)F)c2ccccc2-3)CC1 (centres unmarked) [compound 163] | 100 to 1000 nM | 232 nM
35 | OC1(C(F)(F)F)c2ccccc2-c2ccc(N3CCNCC3)cc21 (centres unmarked) [compound 164] | > 1000 nM | 2750 nM
36 | CC(=O)N1CCN(c2ccc3c(c2)C(O)(C(F)(F)F)c2ccccc2-3)CC1 (centres unmarked) [compound 165] | 100 to 1000 nM | 957 nM
37 | OC1(C(F)(F)F)c2ccccc2-c2ccc(Nc3ccccc3)cc21 (centres unmarked) [compound 166] | > 1000 nM | 5900 nM
38 | COC(=O)C1CCCN1C(=O)c1ccc2c(c1)C(O)(C(F)(F)F)c1ccccc1-2 (centres unmarked) [compound 167] | > 1000 nM | 1950 nM
39 | O=C(O)C1CCCN1C(=O)c1ccc2c(c1)C(O)(C(F)(F)F)c1ccccc1-2 (centres unmarked) [compound 168] | > 1000 nM | > 10000 nM
40 | OC1(C(F)(F)F)c2ccccc2-c2ccc(C3CCCCC3)cc21 (centres unmarked) [compound 169] | > 1000 nM | 7360 nM
41 | COc1ccccc1-c1ccc2c(c1)C(O)(C(F)(F)F)c1ccccc1-2 (centres unmarked) [compound 170] | > 1000 nM | 6740 nM
42 | OC1(C(F)(F)F)c2ccccc2-c2ccc(-c3ccc(F)cc3)cc21 (centres unmarked) [compound 171] | 100 to 1000 nM | 951 nM
43 | COc1ccc(-c2ccc3c(c2)C(O)(C(F)(F)F)c2ccccc2-3)cc1 (centres unmarked) [compound 172] | 100 to 1000 nM | 779 nM
44 | CCOC(=O)c1ccccc1-c1ccc2c(c1)C(O)(C(F)(F)F)c1ccccc1-2 (centres unmarked) [compound 173] | > 1000 nM | > 10000 nM
45 | NC(=O)c1cc(C(=O)N2CCC2)cc2c1-c1ccccc1C2(O)C(F)(F)F (centres unmarked) [compound 174] | < 100 nM | 66 nM
46 | CCOC(=O)c1ccc(-c2ccc3c(c2)C(O)(C(F)(F)F)c2ccccc2-3)cc1 (centres unmarked) [compound 175] | 100 to 1000 nM | 517 nM
47 | NC(=O)C1CCCN1C(=O)c1ccc2c(c1)C(O)(C(F)(F)F)c1ccccc1-2 (centres unmarked) [compound 176] | > 1000 nM | 8010 nM
48 | CNC(=O)C1CCCN1C(=O)c1ccc2c(c1)C(O)(C(F)(F)F)c1ccccc1-2 (centres unmarked) [compound 177] | > 1000 nM | 9190 nM
49 | CN(C)C(=O)C1CCCN1C(=O)c1ccc2c(c1)C(O)(C(F)(F)F)c1ccccc1-2 (centres unmarked) [compound 178] | > 1000 nM | > 10000 nM
50 | OC1(C(F)(F)F)c2ccccc2-c2ccc(-c3ccc(Cl)cc3)cc21 (centres unmarked) [compound 179] | > 1000 nM | 1340 nM
51 | O=C(O)c1ccccc1-c1ccc2c(c1)C(O)(C(F)(F)F)c1ccccc1-2 (centres unmarked) [compound 180] | > 1000 nM | > 10000 nM
52 | Cc1ccc(-c2ccc3c(c2)C(O)(C(F)(F)F)c2ccccc2-3)cc1 (centres unmarked) [compound 181] | > 1000 nM | 1510 nM
